Calls of active or inactive are those of the source. The rule behind the calls is not given here.
molecular target: Mu-type opioid receptor (Homo sapiens) (UniProt P35372); experiment: mu opioid receptor activators – cell-based, luminescence, dose response, set 2, counter-screen for OPRM1-OPRD1 heterodimer activator project, late-stage follow-up (AID 651769); conditions: OPRM1 cell-based luminescence activation counterscreen
Sequence (P35372 whole entry, looked up): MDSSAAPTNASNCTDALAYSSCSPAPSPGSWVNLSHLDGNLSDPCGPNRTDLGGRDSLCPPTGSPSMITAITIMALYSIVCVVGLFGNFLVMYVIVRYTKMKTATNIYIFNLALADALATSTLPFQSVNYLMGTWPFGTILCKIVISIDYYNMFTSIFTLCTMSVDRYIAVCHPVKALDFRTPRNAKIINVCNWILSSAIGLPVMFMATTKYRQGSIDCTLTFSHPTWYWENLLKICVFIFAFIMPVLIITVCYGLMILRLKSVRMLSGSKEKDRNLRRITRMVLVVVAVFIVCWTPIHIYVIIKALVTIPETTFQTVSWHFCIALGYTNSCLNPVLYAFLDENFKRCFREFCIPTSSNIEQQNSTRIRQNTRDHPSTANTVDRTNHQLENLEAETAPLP

SMILES | EC50
CCOC(=O)C1(Cc2ccccc2)CCCN(Cc2ccc(NC(C)=O)cc2)C1 (stereo not drawn) | > 50 µM (inactive)
CCOC(=O)C1(CCc2ccccc2)CCN(Cc2ccc(O)cc2)CC1 | > 50 µM (inactive)
CCOC(=O)C1CCN(CCC(=O)Nc2ccc(C)cc2)CC1 | > 50 µM (inactive)
CCOC(=O)C1(CCOc2ccccc2)CCCN(Cc2ccc(NC(C)=O)cc2)C1 (stereo not drawn) | > 50 µM (inactive)
CCOC(=O)C1(CCc2ccccc2)CCN(Cc2ccncc2)CC1 | > 50 µM (inactive)
CCOC(=O)C1(CCc2ccccc2)CCN(Cc2c(O)cccc2OC)CC1 | 3.44 µM
CC(=O)Nc1ccc(CN2CCCC(CO)(CCc3ccccc3)C2)cc1 (stereo not drawn) | > 50 µM (inactive)
CCOC(=O)C1(Cc2cccc(OC)c2)CCCN(Cc2ccc(NC(C)=O)cc2)C1 (stereo not drawn) | > 50 µM (inactive)
CCOC(=O)C1(CCc2ccccc2)CCN(Cc2ccc(C#CC(C)(C)O)cc2)CC1 | > 50 µM (inactive)
CCOC(=O)C1(Cc2ccccc2C)CCCN(Cc2ccc(NC(C)=O)cc2)C1 (stereo not drawn) | > 50 µM (inactive)
CCOC(=O)C1(CCOC)CCN(Cc2ccc(N(C)c3ccccc3)cc2)CC1 | > 50 µM (inactive)
CCOC(=O)C1CCN(Cc2ccc(N(C)C)cc2)CC1 | > 50 µM (inactive)
CCOC(=O)C1(CCc2ccccc2)CCN(Cc2ccc(OC)cc2)CC1 | 1.92 µM
CCOC(=O)C1(CCOC)CCCN(Cc2ccc(NC(C)=O)cc2)C1 (stereo not drawn) | > 50 µM (inactive)

Second part, the compound after the results:

EC50 | SMILES
> 50 µM (inactive) | C=Cc1ccc(C(=O)N2CCC(CCc3ccccc3)(C(=O)OCC)CC2)cc1
> 50 µM (inactive) | CCOC(=O)C1CCN(C(=O)c2ccc(N(C)C)cc2)CC1
> 50 µM (inactive) | CCOC(=O)C1(CCc2ccccc2)CCN(Cc2ccc(C(=O)OC)cc2)CC1
> 50 µM (inactive) | CCOC(=O)C1(CC2CC2)CCN(C(=O)c2ccc(N3CCCCC3)cc2)CC1
> 50 µM (inactive) | CCOC(=O)C1CCCCN1Cc1ccc(NC(C)=O)cc1 (stereo not drawn)
> 50 µM (inactive) | CCOC(=O)C1(CC2CC2)CCN(Cc2ccc(NC(C)=O)cc2)CC1
> 50 µM (inactive) | O=C(O)C1CCCCC1C(=O)Nc1ccc(CN2CCCCC2)cc1 (stereo not drawn)
> 50 µM (inactive) | C=Cc1ccc(C(=O)N2CCC(CCCc3ccccc3)(C(=O)OCC)CC2)cc1
> 50 µM (inactive) | CCOC(=O)C1(CCc2ccccc2)CCN(C(=O)Nc2ccc(C)cc2C)CC1
> 50 µM (inactive) | CCOC(=O)C1(Cc2ccc(OC)cc2)CCN(C(=O)c2ccc(N(C)C)cc2)CC1
> 50 µM (inactive) | CCOC(=O)C1(CCOC)CCN(Cc2ccc(NC(C)=O)cc2)CC1
> 50 µM (inactive) | CCOC(=O)C1CCN(Cc2ccc(NC(C)=O)cc2)CC1
> 50 µM (inactive) | CCOC(=O)C1(CCc2ccccc2)CCCN(Cc2ccc(N3CCNC3=O)cc2)C1 (stereo not drawn)
> 50 µM (inactive) | CCOC(=O)C1(Cc2ccccc2Cl)CCN(Cc2ccc(NC(C)=O)cc2)CC1

— PubChem BioAssay AID651769 (The Scripps Research Institute Molecular Screening Center, 2012)
